Data as given in US20230141603A1, “BENZODIAZEPINE DERIVATIVES AS GABA A GAMMA1 PAM” (Hoffmann-La Roche Inc., priority 2021, published 2023).

Each molecule was assayed against T1, h-GABAA α2β2γ1 (Homo sapiens, UniProt P47869+Q8N1C3) (assay: Radioligand binding assay, [3H]RO7239181 competition, HEK293F membranes).
T1 sequence (P47869 29-451): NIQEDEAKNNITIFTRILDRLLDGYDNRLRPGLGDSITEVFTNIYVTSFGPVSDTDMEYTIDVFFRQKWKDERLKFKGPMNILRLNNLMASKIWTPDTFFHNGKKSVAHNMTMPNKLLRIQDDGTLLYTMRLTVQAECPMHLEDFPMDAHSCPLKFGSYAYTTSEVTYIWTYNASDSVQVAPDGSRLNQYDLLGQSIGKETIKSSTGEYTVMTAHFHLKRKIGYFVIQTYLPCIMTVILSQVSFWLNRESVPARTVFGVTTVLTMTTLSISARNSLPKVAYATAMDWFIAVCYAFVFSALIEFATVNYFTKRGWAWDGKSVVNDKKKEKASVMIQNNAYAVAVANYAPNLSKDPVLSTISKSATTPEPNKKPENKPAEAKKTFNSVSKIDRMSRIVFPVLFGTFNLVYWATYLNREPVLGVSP
T1 sequence (P47870 25-512 partner limits assumed): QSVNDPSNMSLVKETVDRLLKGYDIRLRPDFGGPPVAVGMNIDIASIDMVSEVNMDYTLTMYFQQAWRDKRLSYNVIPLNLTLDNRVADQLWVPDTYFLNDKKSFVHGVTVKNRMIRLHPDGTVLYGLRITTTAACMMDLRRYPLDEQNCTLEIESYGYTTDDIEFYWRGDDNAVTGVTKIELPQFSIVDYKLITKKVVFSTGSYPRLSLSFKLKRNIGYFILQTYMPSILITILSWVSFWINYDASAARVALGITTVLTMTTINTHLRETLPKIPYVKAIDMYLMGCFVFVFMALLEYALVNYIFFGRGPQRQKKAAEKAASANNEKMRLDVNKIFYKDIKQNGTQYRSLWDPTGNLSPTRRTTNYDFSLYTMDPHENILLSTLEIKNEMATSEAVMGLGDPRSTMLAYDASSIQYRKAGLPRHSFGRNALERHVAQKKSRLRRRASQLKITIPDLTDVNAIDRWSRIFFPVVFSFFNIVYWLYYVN
T1 sequence (Q8N1C3 36-465): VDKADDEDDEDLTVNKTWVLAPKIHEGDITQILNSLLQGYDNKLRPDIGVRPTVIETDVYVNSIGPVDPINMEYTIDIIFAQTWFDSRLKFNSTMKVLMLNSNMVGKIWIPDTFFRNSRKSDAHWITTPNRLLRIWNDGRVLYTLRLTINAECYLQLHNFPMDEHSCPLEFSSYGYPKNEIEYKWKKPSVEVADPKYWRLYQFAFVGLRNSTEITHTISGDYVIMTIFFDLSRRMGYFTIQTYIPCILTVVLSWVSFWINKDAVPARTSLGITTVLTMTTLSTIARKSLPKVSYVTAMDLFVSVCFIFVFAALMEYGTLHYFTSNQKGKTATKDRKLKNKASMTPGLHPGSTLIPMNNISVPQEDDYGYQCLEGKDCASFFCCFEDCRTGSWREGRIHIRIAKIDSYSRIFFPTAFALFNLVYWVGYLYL
Parameters: signal peptide of human GABAA α5 subunit (Met1 to Ser31), replacing the α2 signal peptide (N); expressed in transfected cells; host or cells: HEK293F cells (ThermoFisher R79007), membranes
Method: The affinity of compounds at GABAA γ1 subunit-containing receptors was measured by competition for [^3H]RO7239181 (67.3 Ci/mmol; Roche) binding to membranes from HEK293F cells (ThermoFisher R79007) expressing human (transiently transfected) receptors of composition […], α2β2γ1, α1β2γ1.
Harvested pellets from HEK293F cells expressing the different GABAA receptor subtypes were resuspended in Mannitol Buffer pH 7.2-7.4 (Mannitol 0.29M, Triethylamine 10 mM, Acetic acid 10 mM, EDTA 1 mM plus protease inhibitors (20 tablets Complete, Roche Diagnostics Cat. No. 05 056 489 001 per liter)), washed two times and then resuspended at 1:10 to 1:15 dilution in the same buffer. Cell disruption was performed by stirring the suspension in a Parr vessel #4637 at 435 psi for 15 minutes, and then the suspensions were centrifuged at 1000×g for 15 minutes at 4° C. (Beckman Avanti J-HC; rotor JS-4.2). The supernatant (S1) was transferred in a 21 Schott flask and the pellet (P1) was resuspended with Mannitol Buffer up to 175 ml. The resuspended pellet was transferred into a 250 ml Corning centrifugal beaker and centrifuged at 1500×g for 10 minutes at 4° C. (Beckman Avanti J-HC; rotor JS-4.2). The supernatant (S1) was then transferred in the 21 Schott flask and the pellet was discarded. The supernatants (S1) were centrifuged in 500 ml Beckman polypropylene centrifugal beaker at 15′000×g for 30 minutes at 4° C. (Beckman Avanti J-20 XP; rotor JLA-10.500). The pellet (P2) was resuspended with Mannitol Buffer 1:1 and frozen at −80° C. The supernatant (S2) was centrifuged in 100 ml Beckman polypropylene centrifugal tubes at 48000×g for 50 minutes at 4° C. (Beckman Avanti J-20 XP; rotor JA-18). The supernatant (S3) was discarded and the pellet (P3) was resuspended with 1:1 Mannitol Buffer. The P2 and P3 protein concentration was determined with the BIORAD Standard assay method with bovine serum albumin as standard and measured on the NANO-Drop 1000. The membrane suspension was aliquots (500 μl per tube) and stored at −80° C. until required. Membrane homogenates were resuspended and polytronised (Polytron PT1200E Kinematica AG) in Potassium Phosphate 10 mM, KCl 100 mM binding buffer at pH 7.4 to a final assay concentration determined with a previous experiment.
Assays were incubated to equilibrium for 1 hour at 4° C. and then, membranes were filtered onto unifilter (96-well white microplate with bonded GF/C filters preincubated 20-50 minutes in 0.3% Polyethylenimine) with a Filtermate 196 harvester (Packard BioScience) and washed 4 times with cold Potassium Phosphate 10 mM pH 7.4, KCl 100 mM binding buffer. After drying, filter-retained radioactivity was detected by liquid scintillation counting. Ki values were calculated using Excel-Fit (Microsoft) and are the means of two determinations.

**Q.** For COc1ccc2c(c1Cl)C(c1c(F)cccc1F)=NCc1nnc(-c3cccnn3)n1-2 [Example 57, 7-chloro-6-(2,6-difluorophenyl)-8-methoxy-1-pyridazin-3-yl-4H-[1,2,4]triazolo[4,3-a][1,4]benzodiazepine], which Ki is on record?
**A.** The Ki was 57.9 nM.

**Q.** With Cc1nnc2n1-c1ccc(Cl)c(Cl)c1C(c1ncccc1F)=NC2 [Example 71, 7,8-dichloro-6-(3-fluoro-2-pyridyl)-1-methyl-4H-[1,2,4]triazolo[4,3-a][1,4]benzodiazepine] as the molecule, how does the Ki read?
**A.** The Ki was 37.6 nM.

**Q.** Fc1cccnc1C1=NCc2nnc(-c3cccnn3)n2-c2ccc(C(F)(F)F)c(Cl)c21 [Example 72, 7-chloro-6-(3-fluoro-2-pyridyl)-1-pyridazin-3-yl-8-(trifluoromethyl)-4H-[1,2,4]triazolo[4,3-a][1,4]benzodiazepine] was tested. Which Ki did it give?
**A.** The Ki was 30.1 nM.

**Q.** How did the Ki turn out when COc1ccc2c(c1Cl)C(c1c(F)cccc1F)=NCc1nnc(-c3cccnc3)n1-2 [Example 62, 7-chloro-6-(2,6-difluorophenyl)-8-methoxy-1-(3-pyridyl)-4H-[1,2,4]triazolo[4,3-a][1,4]benzodiazepine] was run?
**A.** Its Ki is 55.3 nM.

**Q.** Cc1nnc2n1-c1ccc(Cl)c(Cl)c1C(c1ccccc1F)=NC2 [Example 4, 7,8-dichloro-6-(2-fluorophenyl)-1-methyl-4H-[1,2,4]triazolo[4,3-a][1,4]benzodiazepine] was tested. Which Ki did it give?
**A.** The Ki was 65.8 nM.

**Q.** How did the Ki turn out when Cc1nnc2n1-c1ccc(Br)c(Cl)c1C(c1c(F)cccc1F)=NC2 [Example 1, 8-bromo-7-chloro-6-(2,6-difluorophenyl)-1-methyl-4H-[1,2,4]triazolo[4,3-a][1,4]benzodiazepine] was run?
**A.** Its Ki is 8 nM.

**Q.** For CC(F)(F)c1ccc2c(c1Cl)C(c1c(F)cccc1F)=NCc1nncn1-2 [Example 21, 7-chloro-8-(1,1-difluoroethyl)-6-(2,6-difluorophenyl)-4H-[1,2,4]triazolo[4,3-a][1,4]benzodiazepine], which Ki is on record?
**A.** The Ki was 52 nM.

**Q.** Which Ki does the source give for O=c1[nH]nc2n1-c1ccc(Br)c(Cl)c1C(c1c(F)cccc1F)=NC2 [Example 13, 8-bromo-7-chloro-6-(2,6-difluorophenyl)-2,4-dihydro-[1,2,4]triazolo[4,3-a][1,4]benzodiazepin-1-one] here?
**A.** The Ki was 6.2 nM.

**Q.** For Fc1cccnc1C1=NCc2nnc(-c3ccncn3)n2-c2ccc(Cl)c(Cl)c21 [Example 55, 7,8-dichloro-6-(3-fluoro-2-pyridyl)-1-pyrimidin-4-yl-4H-[1,2,4]triazolo[4,3-a][1,4]benzodiazepine], which Ki is on record?
**A.** Its Ki is 18.5 nM.

**Q.** With Cc1ccc2c(c1Cl)C(c1c(F)cccc1F)=NCc1n[nH]c(=O)n1-2 [Example 16, 7-chloro-6-(2,6-difluorophenyl)-8-methyl-2,4-dihydro-[1,2,4]triazolo[4,3-a][1,4]benzodiazepin-1-one] as the molecule, how does the Ki read?
**A.** Its Ki is 26.5 nM.

**Q.** Fc1cccnc1C1=NCc2nnc(-c3ccncn3)n2-c2ccc(C(F)(F)F)c(Cl)c21 [Example 69, 7-chloro-6-(3-fluoro-2-pyridyl)-1-pyrimidin-4-yl-8-(trifluoromethyl)-4H-[1,2,4]triazolo[4,3-a][1,4]benzodiazepine] was tested. Which Ki did it give?
**A.** The Ki was 63.6 nM.

**Q.** Cc1nnc2n1-c1ccc(C3CC3)c(Cl)c1C(c1c(F)cccc1F)=NC2 [Example 6, 7-chloro-8-cyclopropyl-6-(2,6-difluorophenyl)-1-methyl-4H-[1,2,4]triazolo[4,3-a][1,4]benzodiazepine] was tested. Which Ki did it give?
**A.** Its Ki is 93.3 nM.

**Q.** With COc1nnc2n1-c1ccc(Cl)c(Cl)c1C(c1c(F)cccc1F)=NC2 [Example 90, 7,8-dichloro-6-(2,6-difluorophenyl)-1-methoxy-4H-[1,2,4]triazolo[4,3-a][1,4]benzodiazepine] as the molecule, how does the Ki read?
**A.** Its Ki is 5.8 nM.

**Q.** Which Ki does the source give for Cn1cc(-c2nnc3n2-c2ccc(Cl)c(Cl)c2C(c2c(F)cccc2F)=NC3)cn1 [Example 28, 7,8-dichloro-6-(2,6-difluorophenyl)-1-(1-methylpyrazol-4-yl)-4H-[1,2,4]triazolo[4,3-a][1,4]benzodiazepine] here?
**A.** The Ki was 9.4 nM.

**Q.** With Clc1cccnc1C1=NCc2nnc(-c3cccnn3)n2-c2ccc(Br)c(Cl)c21 [Example 47, 8-bromo-7-chloro-6-(3-chloro-2-pyridyl)-1-pyridazin-3-yl-4H-[1,2,4]triazolo[4,3-a][1,4]benzodiazepine] as the molecule, how does the Ki read?
**A.** Its Ki is 15.9 nM.

**Q.** With Cc1ccc2c(c1Cl)C(c1c(F)cccc1F)=NCc1nnc(C)n1-2 [Example 20, 7-chloro-6-(2,6-difluorophenyl)-1,8-dimethyl-4H-[1,2,4]triazolo[4,3-a][1,4]benzodiazepine] as the molecule, how does the Ki read?
**A.** The Ki was 23.8 nM.

**Q.** How did the Ki turn out when Cc1nnc2n1-c1ccc(Cl)c(Cl)c1C(c1c(F)cccc1F)=NC2 [Example 5, 7,8-dichloro-6-(2,6-difluorophenyl)-1-methyl-4H-[1,2,4]triazolo[4,3-a][1,4]benzodiazepine] was run?
**A.** Its Ki is 6.6 nM.

**Q.** For Cc1nnc2n1-c1ccc(C(C)(F)F)c(Cl)c1C(c1c(F)cccc1F)=NC2 [Example 22, 7-chloro-8-(1,1-difluoroethyl)-6-(2,6-difluorophenyl)-1-methyl-4H-[1,2,4]triazolo[4,3-a][1,4]benzodiazepine], which Ki is on record?
**A.** The Ki was 37.4 nM.

**Q.** For Fc1cccc(F)c1C1=NCc2nncn2-c2ccc(Cl)c(Cl)c21 [Example 15, 7,8-dichloro-6-(2,6-difluorophenyl)-4H-[1,2,4]triazolo[4,3-a][1,4]benzodiazepine], which Ki is on record?
**A.** Its Ki is 8.7 nM.

**Q.** For Cc1nnc2n1-c1ccc(C(F)F)c(Cl)c1C(c1c(F)cccc1F)=NC2 [Example 25, 7-chloro-8-(difluoromethyl)-6-(2,6-difluorophenyl)-1-methyl-4H-[1,2,4]triazolo[4,3-a][1,4]benzodiazepine], which Ki is on record?
**A.** Its Ki is 49.2 nM.

**Q.** For Fc1cccc(F)c1C1=NCc2nnc(-c3cccnn3)n2-c2ccc(I)c(Cl)c21 [Example 39, 7-chloro-6-(2,6-difluorophenyl)-8-iodo-1-pyridazin-3-yl-4H-[1,2,4]triazolo[4,3-a][1,4]benzodiazepine], which Ki is on record?
**A.** Its Ki is 4.2 nM.

**Q.** Fc1cccc(F)c1C1=NCc2nncn2-c2ccc(C(F)F)c(Cl)c21 [Example 23, 7-chloro-8-(difluoromethyl)-6-(2,6-difluorophenyl)-4H-[1,2,4]triazolo[4,3-a][1,4]benzodiazepine] was tested. Which Ki did it give?
**A.** Its Ki is 54.5 nM.
